{"source": "ChEMBL document CHEMBL1201862", "about": "“PubChem BioAssay data set” (2004)", "experiment_in_all_cases": "NCI-60 cell line screen, 48 h", "key": {"[1]": {"test_system": "786-0"}, "[2]": {"test_system": "A498"}, "[3]": {"test_system": "A549"}, "[4]": {"test_system": "ACHN"}, "[5]": {"test_system": "CCRF-CEM"}, "[6]": {"test_system": "DLD-1"}, "[7]": {"test_system": "DMS-114"}, "[8]": {"test_system": "DMS-273"}, "[9]": {"test_system": "HCC 2998"}, "[10]": {"test_system": "HCT-116"}, "[11]": {"test_system": "HCT-15"}, "[12]": {"test_system": "HL-60"}, "[13]": {"test_system": "HOP-18"}, "[14]": {"test_system": "HT-29"}, "[15]": {"test_system": "IGROV-1"}, "[16]": {"test_system": "K562"}, "[17]": {"test_system": "KM12"}, "[18]": {"test_system": "LOX IMVI"}, "[19]": {"test_system": "LXFL 529"}, "[20]": {"test_system": "M14"}, "[21]": {"test_system": "M19-MEL"}, "[22]": {"test_system": "MOLT-4"}, "[23]": {"test_system": "Malme-3M"}, "[24]": {"test_system": "NCI-H226"}, "[25]": {"test_system": "NCI-H460"}, "[26]": {"test_system": "NCI-H522"}, "[27]": {"test_system": "OVCAR-3"}, "[28]": {"test_system": "OVCAR-4"}, "[29]": {"test_system": "OVCAR-8"}, "[30]": {"test_system": "RXF 393"}, "[31]": {"test_system": "SF-268"}, "[32]": {"test_system": "SF-539"}, "[33]": {"test_system": "SK-MEL-28"}, "[34]": {"test_system": "SK-MEL-2"}, "[35]": {"test_system": "SK-MEL-5"}, "[36]": {"test_system": "SK-OV-3"}, "[37]": {"test_system": "SN12C"}, "[38]": {"test_system": "SNB-19"}, "[39]": {"test_system": "SNB-75"}, "[40]": {"test_system": "SNB-78"}, "[41]": {"test_system": "TK-10"}, "[42]": {"test_system": "U-251"}, "[43]": {"test_system": "UACC-257"}, "[44]": {"test_system": "UACC-62"}, "[45]": {"test_system": "UO-31"}, "[46]": {"test_system": "XF498"}}, "note": "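Growth conditions: 96-well plates. Treatment: test compound, 48 hours, 5 concentrations. Analysis: linear interpolation between bracketing concentrations; unreached endpoints set to highest concentration. GI50 = concentration required for 50% inhibition of growth.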 Active and inactive are the calls of the source. Rule as the data show it: active = GI50 up to about 1.1 µM and inactive = higher."}
{"smiles": "CC(Oc1ccc(OCC2CCCCC2)cc1)C(=O)NCc1ccco1", "note": "(stereo unspecified)", "values": [{"measurement": "GI50", "setting": "[1]", "result": "34.6 µM (inactive)"}, {"measurement": "GI50", "setting": "[2]", "result": "24.7 µM (inactive)"}, {"measurement": "GI50", "setting": "[3]", "result": "34.9 µM (inactive)"}, {"measurement": "GI50", "setting": "[4]", "result": "36.1 µM (inactive)"}, {"measurement": "GI50", "setting": "[5]", "result": "41 µM (inactive)"}, {"measurement": "GI50", "setting": "[6]", "result": "34.9 µM (inactive)"}, {"measurement": "GI50", "setting": "[7]", "result": "18.4 µM (inactive)"}, {"measurement": "GI50", "setting": "[8]", "result": "25.5 µM (inactive)"}, {"measurement": "GI50", "setting": "[9]", "result": "36.6 µM (inactive)"}, {"measurement": "GI50", "setting": "[10]", "result": "26.4 µM (inactive)"}, {"measurement": "GI50", "setting": "[11]", "result": 48.1, "unit": "µM"}, {"measurement": "GI50", "setting": "[12]", "result": "31.5 µM (inactive)"}, {"measurement": "GI50", "setting": "[13]", "result": "89.7 µM (inactive)"}, {"measurement": "GI50", "setting": "[14]", "result": "22.1 µM (inactive)"}, {"measurement": "GI50", "setting": "[15]", "result": "43.7 µM (inactive)"}, {"measurement": "GI50", "setting": "[16]", "result": "42.3 µM (inactive)"}, {"measurement": "GI50", "setting": "[17]", "result": "37.1 µM (inactive)"}, {"measurement": "GI50", "setting": "[18]", "result": "20.7 µM (inactive)"}, {"measurement": "GI50", "setting": "[19]", "result": "35.6 µM (inactive)"}, {"measurement": "GI50", "setting": "[20]", "result": "18.7 µM (inactive)"}, {"measurement": "GI50", "setting": "[21]", "result": "40.7 µM (inactive)"}, {"measurement": "GI50", "setting": "[22]", "result": "34.9 µM (inactive)"}, {"measurement": "GI50", "setting": "[23]", "result": "27 µM (inactive)"}, {"measurement": "GI50", "setting": "[24]", "result": "28.8 µM (inactive)"}, {"measurement": "GI50", "setting": "[25]", "result": "48.1 µM (inactive)"}, {"measurement": "GI50", "setting": "[26]", "result": "18.4 µM (inactive)"}, {"measurement": "GI50", "setting": "[27]", "result": "40.6 µM (inactive)"}, {"measurement": "GI50", "setting": "[28]", "result": "56.5 µM (inactive)"}, {"measurement": "GI50", "setting": "[29]", "result": "24.9 µM (inactive)"}, {"measurement": "GI50", "setting": "[30]", "result": "22.6 µM (inactive)"}, {"measurement": "GI50", "setting": "[31]", "result": "98.9 µM (inactive)"}, {"measurement": "GI50", "setting": "[32]", "result": "37.7 µM (inactive)"}, {"measurement": "GI50", "setting": "[33]", "result": "43.6 µM (inactive)"}, {"measurement": "GI50", "setting": "[34]", "result": "21 µM (inactive)"}, {"measurement": "GI50", "setting": "[35]", "result": "15.7 µM (inactive)"}, {"measurement": "GI50", "setting": "[36]", "result": "98.9 µM (inactive)"}, {"measurement": "GI50", "setting": "[37]", "result": "51.1 µM (inactive)"}, {"measurement": "GI50", "setting": "[38]", "result": "74.3 µM (inactive)"}, {"measurement": "GI50", "setting": "[39]", "result": "25.6 µM (inactive)"}, {"measurement": "GI50", "setting": "[40]", "result": "58.6 µM (inactive)"}, {"measurement": "GI50", "setting": "[41]", "result": "84.7 µM (inactive)"}, {"measurement": "GI50", "setting": "[42]", "result": "36.6 µM (inactive)"}, {"measurement": "GI50", "setting": "[43]", "result": "23.6 µM (inactive)"}, {"measurement": "GI50", "setting": "[44]", "result": "56 µM (inactive)"}, {"measurement": "GI50", "setting": "[45]", "result": "28.3 µM (inactive)"}, {"measurement": "GI50", "setting": "[46]", "result": "17.7 µM (inactive)"}]}
